Results on one compound are retold here after publication PMC11488110 (Theranostics, 2024).

Bounds are passed on as bounds.

The target in data set [1] is T1, hPPARγ (Homo sapiens, UniProt P37231).
T1 sequence (P37231 1-505): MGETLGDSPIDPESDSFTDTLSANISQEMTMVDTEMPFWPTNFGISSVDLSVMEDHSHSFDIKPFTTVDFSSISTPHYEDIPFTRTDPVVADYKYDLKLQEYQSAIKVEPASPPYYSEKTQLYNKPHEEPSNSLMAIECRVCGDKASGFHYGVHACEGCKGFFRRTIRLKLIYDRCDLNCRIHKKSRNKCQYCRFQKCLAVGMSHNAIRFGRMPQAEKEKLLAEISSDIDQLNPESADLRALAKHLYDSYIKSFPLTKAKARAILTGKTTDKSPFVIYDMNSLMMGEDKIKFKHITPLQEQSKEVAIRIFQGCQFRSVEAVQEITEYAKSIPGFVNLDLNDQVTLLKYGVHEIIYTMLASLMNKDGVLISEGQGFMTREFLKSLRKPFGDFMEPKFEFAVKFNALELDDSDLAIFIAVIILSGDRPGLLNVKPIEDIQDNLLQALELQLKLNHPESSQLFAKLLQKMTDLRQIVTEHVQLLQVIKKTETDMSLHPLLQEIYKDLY
Briefly: In vitro co-transfection (PPRE-luciferase) assay in CV-1 cells, hPPARγ. Format: cell-based. The note with it: 24 h, read-out: Potency (EC50) hPPARγ.

Data set [2] addresses T2, CYP1A2 (Homo sapiens, UniProt P05177).
T2 construct: performed using 0.25 mg/mL human liver microsomes; from tissue; host or cells: human liver microsomes
T2 sequence (P05177 1-516): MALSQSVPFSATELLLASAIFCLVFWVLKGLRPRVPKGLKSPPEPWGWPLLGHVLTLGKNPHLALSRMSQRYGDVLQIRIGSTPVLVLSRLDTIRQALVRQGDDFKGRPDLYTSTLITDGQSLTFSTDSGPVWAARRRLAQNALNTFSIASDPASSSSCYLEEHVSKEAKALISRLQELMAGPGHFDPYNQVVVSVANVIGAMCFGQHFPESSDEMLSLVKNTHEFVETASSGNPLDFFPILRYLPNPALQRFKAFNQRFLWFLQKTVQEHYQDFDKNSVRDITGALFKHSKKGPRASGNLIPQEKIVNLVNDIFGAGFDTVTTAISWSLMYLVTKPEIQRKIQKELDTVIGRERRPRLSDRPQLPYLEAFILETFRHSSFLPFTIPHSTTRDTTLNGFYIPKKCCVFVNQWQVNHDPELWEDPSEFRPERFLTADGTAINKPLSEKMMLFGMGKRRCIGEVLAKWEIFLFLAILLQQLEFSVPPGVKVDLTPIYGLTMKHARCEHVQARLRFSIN
The data set is described as follows: CYP inhibition assay, human liver microsomes. Format: in vitro ADME. As to the method:
(§1) All incubations were performed in duplicate, and the mean values were used for analysis. Cocktail incubations were carried out using […] probe substrates of CYP1A2, CYP2C9, CYP2C19, CYP2D6, and CYP3A4: phenacetin, tolbutamide, mephenytoin, dextromethorphan and midazolam respectively, followed by tandem mass spectrometry. Briefly, an incubation reaction was performed using 0.25 mg/mL human liver microsomes in a final incubation volume of 100 μL. The incubation medium contained 100 mM phosphate buffer (pH 7.4) and probe substrates. The incubation mixture containing various inhibitors (10 μM) was pre-incubated for 5 min. After pre-incubation, an NADPH-regenerating system was added. After incubation at 37 °C for 15 min, the reaction was stopped by placing the incubation tubes on ice and adding 40 μL of ice-cold acetonitrile. The incubation mixtures were centrifuged at 10,000 g and 4 °C for 5 min. Aliquots of the supernatant were injected onto an LC-MS/MS system. The CYP-mediated activities in the presence of inhibitors were expressed as a percentage of the corresponding control value.
(§2) Ta b l e S2 . CYP inhibition, microsomal stability, and hERG in hibition of 5a .
(§3) CYP inhibitiona Microsomal stabilityb
(§4) ( % of c ont rol ac ti vit y) (% of remaining compound) hERG inhibitionc (IC50, μ M) […]
(§5) aCytochrome P450 (CYP450) enzyme activity was measured by incubating CYP450 enzyme isotype-specific substrates and liver microsomes in the presence of the test compound (10 μM) for 15 min. Data are expressed as percent of CYP enzyme activity relative to that of t he v ehicle-treated control. […]
(§6) a- cThe results of these three assays were obtained through the in vitro ADME/Tox study service of KMEDIhub, a contract research organization (CRO). The reported measurements are the mean of […]
For orientation: Microsomes from liver hold many membrane-bound enzymes, among them those of drug oxidation.

In data set [3] the target is T3, CYP2C19 (Homo sapiens, UniProt P33261).
T3 construct: performed using 0.25 mg/mL human liver microsomes; from tissue; host or cells: human liver microsomes
Briefly: CYP inhibition assay, human liver microsomes. It is filed as in vitro ADME. As to the method: as §1, §2, §3, §4, §5, §6

For data set [4], the target named is T4, CYP2C9 (Homo sapiens, UniProt P11712).
T4 construct: performed using 0.25 mg/mL human liver microsomes; from tissue; host or cells: human liver microsomes
Briefly: CYP inhibition assay, human liver microsomes. It is filed as in vitro ADME. As to the method:
as §1, §2, §3, §4, §5, §6

Data set [5] has as its target T5, CYP2D6 (Homo sapiens, UniProt P10635).
T5 construct: performed using 0.25 mg/mL human liver microsomes; from tissue; host or cells: human liver microsomes
Briefly: CYP inhibition assay, human liver microsomes. It is filed as in vitro ADME. As to the method: as §1, §2, §3, §4, §5, §6

The target of data set [6] is T6, CYP3A4 (Homo sapiens, UniProt P08684).
T6 construct: performed using 0.25 mg/mL human liver microsomes; from tissue; host or cells: human liver microsomes
The data set is described as follows: CYP inhibition assay, human liver microsomes. It is filed as in vitro ADME. As to the method:
as §1, §2, §3, §4, §5, §6

Data set [7] is described as follows: Pharmacokinetics in Sprague-Dawley rats. The note with it: rat, plasma.
[8] abbreviates: 10 μM, 15 min, human liver microsomes.
The mark [9] stands for this setting: stated for the five CYP subtypes, tested at 10 µM.

T6 sequence (P08684 whole entry): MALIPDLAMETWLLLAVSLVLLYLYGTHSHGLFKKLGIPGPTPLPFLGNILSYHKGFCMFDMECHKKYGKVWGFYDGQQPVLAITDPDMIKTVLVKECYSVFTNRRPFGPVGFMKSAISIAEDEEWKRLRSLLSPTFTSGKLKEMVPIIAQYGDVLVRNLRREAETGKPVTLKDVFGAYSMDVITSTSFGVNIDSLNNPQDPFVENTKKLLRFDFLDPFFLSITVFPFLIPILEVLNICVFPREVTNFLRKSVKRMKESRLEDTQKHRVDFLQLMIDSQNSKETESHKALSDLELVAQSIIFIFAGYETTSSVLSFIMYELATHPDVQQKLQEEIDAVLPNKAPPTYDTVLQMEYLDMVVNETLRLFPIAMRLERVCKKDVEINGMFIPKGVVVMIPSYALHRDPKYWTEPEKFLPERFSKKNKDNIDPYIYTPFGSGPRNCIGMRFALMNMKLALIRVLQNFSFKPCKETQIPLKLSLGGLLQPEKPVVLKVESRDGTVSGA
T3 sequence (P33261 whole entry): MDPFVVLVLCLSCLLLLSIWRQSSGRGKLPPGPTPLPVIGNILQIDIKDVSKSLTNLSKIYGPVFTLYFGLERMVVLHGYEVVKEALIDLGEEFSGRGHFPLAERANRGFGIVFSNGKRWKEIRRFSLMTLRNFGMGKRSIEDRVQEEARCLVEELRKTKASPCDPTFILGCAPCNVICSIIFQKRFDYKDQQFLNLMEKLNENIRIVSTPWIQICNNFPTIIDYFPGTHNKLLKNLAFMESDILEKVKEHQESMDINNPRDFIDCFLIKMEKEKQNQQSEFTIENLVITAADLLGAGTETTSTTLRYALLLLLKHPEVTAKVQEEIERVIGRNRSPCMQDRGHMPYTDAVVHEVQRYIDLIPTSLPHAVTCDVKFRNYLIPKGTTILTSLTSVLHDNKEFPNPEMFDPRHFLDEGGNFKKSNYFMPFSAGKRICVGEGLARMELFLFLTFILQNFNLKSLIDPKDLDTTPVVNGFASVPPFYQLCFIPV
T4 sequence (P11712 whole entry): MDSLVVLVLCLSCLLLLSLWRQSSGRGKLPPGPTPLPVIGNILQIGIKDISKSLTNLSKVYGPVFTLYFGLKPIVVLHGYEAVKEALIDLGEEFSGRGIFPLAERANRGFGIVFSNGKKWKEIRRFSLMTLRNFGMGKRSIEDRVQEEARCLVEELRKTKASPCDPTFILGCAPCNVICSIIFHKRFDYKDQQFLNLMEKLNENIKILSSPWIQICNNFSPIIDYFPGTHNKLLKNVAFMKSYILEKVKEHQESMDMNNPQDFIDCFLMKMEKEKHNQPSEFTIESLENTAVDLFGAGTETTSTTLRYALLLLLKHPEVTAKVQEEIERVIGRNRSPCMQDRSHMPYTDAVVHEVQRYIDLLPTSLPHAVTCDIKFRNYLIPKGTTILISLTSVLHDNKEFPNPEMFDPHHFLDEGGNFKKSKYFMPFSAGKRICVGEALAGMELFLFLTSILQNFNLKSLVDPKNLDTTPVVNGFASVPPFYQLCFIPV
T5 sequence (P10635 whole entry): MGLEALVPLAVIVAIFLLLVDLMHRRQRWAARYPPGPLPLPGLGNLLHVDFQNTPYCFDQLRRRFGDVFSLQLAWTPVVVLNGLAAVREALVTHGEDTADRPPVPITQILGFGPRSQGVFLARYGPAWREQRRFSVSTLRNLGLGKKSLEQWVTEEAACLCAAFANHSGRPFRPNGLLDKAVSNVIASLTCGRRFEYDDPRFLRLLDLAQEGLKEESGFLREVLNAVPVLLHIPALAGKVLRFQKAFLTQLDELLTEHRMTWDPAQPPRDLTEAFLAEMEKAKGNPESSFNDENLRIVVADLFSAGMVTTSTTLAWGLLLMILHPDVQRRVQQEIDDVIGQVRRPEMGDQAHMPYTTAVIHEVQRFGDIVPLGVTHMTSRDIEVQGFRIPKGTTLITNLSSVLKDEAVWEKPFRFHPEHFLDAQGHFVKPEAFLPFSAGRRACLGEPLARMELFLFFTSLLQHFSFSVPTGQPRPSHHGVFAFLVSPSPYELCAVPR

One may read the EC50 as the concentration that produces a half-maximal response. For orientation: IC50 means the concentration needed to halve the response being measured. As a reminder, the AUC is concentration integrated over time. High values mean high exposure, low ones low exposure. Usually Vd stands for the apparent volume that relates the amount in the body to the concentration in plasma or blood. Low values mean little distribution into tissue, high ones wide distribution into tissue. The clearance is the volume of plasma or blood freed of the substance per unit of time. High values mean efficient removal, low ones inefficient removal. As usually defined, the half-life is how long it takes for the measured level to halve. For orientation: bioavailability means the share of a dose that reaches the circulation, judged against a reference dose that is usually intravenous. The low end stands for little systemic uptake, the high end for much systemic uptake. One may read the Cmax as the peak of the concentration-time curve. Regarding `Cc1cc(SCc2[se]c(-c3ccc(C(F)(F)F)cc3)nc2C)ccc1OCC(=O)O` [Compound 5a, {2-Methyl-4-[4-methyl-2-(4-trifluoromethyl-phenyl)-selenazol-5-yl-methylsulfanyl]-phenoxy}-acetic acid], the EC50 in data set [1] was above 10 µM. Moreover, in data set [2] (setting [8]), the “CYP inhibition 1A2 (% of control activity)” value is recorded as 78.1 % of control activity. Further, the IC50 in data set [2] (setting [9]), in data set [3] (setting [9]), in data set [4] (setting [9]), in data set [5] (setting [9]) and in data set [6] (setting [9]) was above 10 µM throughout. The “CYP inhibition 2C19 (% of control activity)” value in data set [3] (setting [8]) is 88.6 % of control activity. For the same compound, in data set [4] (setting [8]), the “CYP inhibition 2C9 (% of control activity)” value is listed as 63.6 % of control activity. In addition, the “CYP inhibition 2D6 (% of control activity)” value in data set [5] (setting [8]) is recorded as 92.1 % of control activity. Besides, in data set [6] (setting [8]), the “CYP inhibition 3A4 (% of control activity)” value is on record as 94.9 % of control activity. Besides, the AUC was found to be 7350 ng·h/mL in data set [7] (iv, 5 mg/kg) and 13300 ng·h/mL in data set [7] (po, 10 mg/kg). For the same compound, the Vd in data set [7] (iv, 5 mg/kg) worked out at 2.3 ± 0.1 L/kg. In data set [7] (iv, 5 mg/kg), this compound returned a clearance of 10.2 mL/min/kg. For the same compound, the half-life in data set [7] (iv, 5 mg/kg) is 2.3 ± 0.6 h. Moreover, in data set [7] (oral, 10 mg/kg), the bioavailability was found to be 90.7%. In data set [7] (po, 10 mg/kg), this compound showed a Cmax of 2740 ng/mL.
